One data set deals with Vero C1008. Kind of data set: Cytotoxicity of compound against Vero E6 cells by MTT assay. The settings on record: chlorocebus sabaeus, vero c1008. For orientation: Tetrazolium assays rely on reduction of a dye to a coloured formazan, in cell work by metabolically active cells.
The target of data set [1] is T1, Alpha-2C adrenergic receptor (Homo sapiens, UniProt P18825).
T1 sequence (P18825 whole entry): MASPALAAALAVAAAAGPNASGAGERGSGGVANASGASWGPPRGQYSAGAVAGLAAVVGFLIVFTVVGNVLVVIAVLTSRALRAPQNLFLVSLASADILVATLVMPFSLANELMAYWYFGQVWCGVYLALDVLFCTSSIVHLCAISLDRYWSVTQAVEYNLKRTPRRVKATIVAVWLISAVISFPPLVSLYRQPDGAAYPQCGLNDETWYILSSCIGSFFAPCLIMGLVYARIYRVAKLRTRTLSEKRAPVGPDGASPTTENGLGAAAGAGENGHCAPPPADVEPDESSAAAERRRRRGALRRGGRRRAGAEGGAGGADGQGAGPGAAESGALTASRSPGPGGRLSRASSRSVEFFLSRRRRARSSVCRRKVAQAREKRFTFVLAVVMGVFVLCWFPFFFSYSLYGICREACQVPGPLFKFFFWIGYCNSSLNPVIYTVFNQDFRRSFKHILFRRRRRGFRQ
Description: Activity of compound against Alpha 2C (ADRA2C) adrenergic receptor by displacement of [3H]-rauwolscine

Data set [2] addresses T2, Muscarinic acetylcholine receptor M1 (Homo sapiens, UniProt P11229).
T2 sequence (P11229 whole entry): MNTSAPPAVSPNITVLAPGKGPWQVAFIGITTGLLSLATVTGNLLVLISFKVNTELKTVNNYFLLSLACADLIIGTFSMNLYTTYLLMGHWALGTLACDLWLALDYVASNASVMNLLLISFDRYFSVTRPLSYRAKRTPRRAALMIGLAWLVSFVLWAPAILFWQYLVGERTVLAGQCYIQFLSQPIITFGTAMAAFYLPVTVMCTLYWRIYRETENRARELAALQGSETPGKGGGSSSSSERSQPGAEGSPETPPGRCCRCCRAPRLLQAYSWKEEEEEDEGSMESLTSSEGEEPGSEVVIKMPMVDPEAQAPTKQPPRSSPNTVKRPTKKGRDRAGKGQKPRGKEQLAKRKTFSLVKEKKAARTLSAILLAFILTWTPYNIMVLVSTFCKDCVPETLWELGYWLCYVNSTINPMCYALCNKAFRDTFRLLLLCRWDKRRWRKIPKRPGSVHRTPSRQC

For data set [3], the target named is Sigma intracellular receptor 2 (Homo sapiens, UniProt Q5BJF2). Briefly: Displacement of [3H]-DTG from the Sigma2 receptor.
Chain of Sigma intracellular receptor 2 (Q5BJF2 whole entry): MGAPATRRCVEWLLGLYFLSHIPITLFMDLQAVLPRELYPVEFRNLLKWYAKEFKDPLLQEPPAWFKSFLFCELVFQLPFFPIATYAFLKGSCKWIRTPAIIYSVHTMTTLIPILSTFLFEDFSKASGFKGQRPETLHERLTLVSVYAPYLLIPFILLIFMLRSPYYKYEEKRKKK
For data set [4], the target named is Sigma non-opioid intracellular receptor 1 (Homo sapiens, UniProt Q99720).
Chain of Sigma non-opioid intracellular receptor 1 (Q99720 whole entry): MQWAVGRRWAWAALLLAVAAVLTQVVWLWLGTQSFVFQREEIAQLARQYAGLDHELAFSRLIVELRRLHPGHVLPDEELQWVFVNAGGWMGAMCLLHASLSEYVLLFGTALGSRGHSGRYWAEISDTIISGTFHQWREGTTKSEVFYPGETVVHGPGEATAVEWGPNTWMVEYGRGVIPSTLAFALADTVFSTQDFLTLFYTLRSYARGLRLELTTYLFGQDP
Description: Displacement of [3H]-pentazocin from the Sigma1 receptor
The target in data set [5] is T3, Alpha-2B adrenergic receptor (Homo sapiens, UniProt P18089).
T3 sequence (P18089 whole entry): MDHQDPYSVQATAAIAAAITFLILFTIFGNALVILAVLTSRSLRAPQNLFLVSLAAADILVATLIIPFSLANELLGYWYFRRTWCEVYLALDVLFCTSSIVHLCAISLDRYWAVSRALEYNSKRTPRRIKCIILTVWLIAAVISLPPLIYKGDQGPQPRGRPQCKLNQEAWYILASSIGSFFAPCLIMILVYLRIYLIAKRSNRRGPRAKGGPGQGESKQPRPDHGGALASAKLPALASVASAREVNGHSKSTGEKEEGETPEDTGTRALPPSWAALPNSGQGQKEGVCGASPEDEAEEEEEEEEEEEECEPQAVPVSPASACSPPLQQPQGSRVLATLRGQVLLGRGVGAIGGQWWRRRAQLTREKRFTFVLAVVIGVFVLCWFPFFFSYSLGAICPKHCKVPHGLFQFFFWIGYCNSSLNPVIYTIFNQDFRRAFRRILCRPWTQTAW

Data set [6] addresses T4, Muscarinic acetylcholine receptor M2 (Homo sapiens, UniProt P08172).
T4 sequence (P08172 whole entry): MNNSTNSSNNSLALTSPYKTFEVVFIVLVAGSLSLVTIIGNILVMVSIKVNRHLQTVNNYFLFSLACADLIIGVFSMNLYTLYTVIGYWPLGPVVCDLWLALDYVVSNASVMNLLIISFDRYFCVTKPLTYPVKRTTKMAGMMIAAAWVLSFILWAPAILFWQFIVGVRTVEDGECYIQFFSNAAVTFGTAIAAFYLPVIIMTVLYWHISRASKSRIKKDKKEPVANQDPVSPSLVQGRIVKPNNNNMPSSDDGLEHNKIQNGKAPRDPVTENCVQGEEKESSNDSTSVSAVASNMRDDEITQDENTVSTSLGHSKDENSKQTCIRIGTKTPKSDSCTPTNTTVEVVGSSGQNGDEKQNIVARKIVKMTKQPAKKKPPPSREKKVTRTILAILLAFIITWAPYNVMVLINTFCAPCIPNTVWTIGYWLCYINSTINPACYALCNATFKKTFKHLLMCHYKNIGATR
Briefly: Activity of compound against Muscarinic acetylcholine receptor M2 (CHRM2) by displacement of 3H-QNB. Background: Loss of bound radioactivity is the signal in a displacement assay; it reports binding, not function.

Data set [7] addresses Muscarinic acetylcholine receptor M3 (Homo sapiens, UniProt P20309).
Data set [8] deals with T5, Muscarinic acetylcholine receptor M5 (Homo sapiens, UniProt P08912).
T5 sequence (P08912 whole entry): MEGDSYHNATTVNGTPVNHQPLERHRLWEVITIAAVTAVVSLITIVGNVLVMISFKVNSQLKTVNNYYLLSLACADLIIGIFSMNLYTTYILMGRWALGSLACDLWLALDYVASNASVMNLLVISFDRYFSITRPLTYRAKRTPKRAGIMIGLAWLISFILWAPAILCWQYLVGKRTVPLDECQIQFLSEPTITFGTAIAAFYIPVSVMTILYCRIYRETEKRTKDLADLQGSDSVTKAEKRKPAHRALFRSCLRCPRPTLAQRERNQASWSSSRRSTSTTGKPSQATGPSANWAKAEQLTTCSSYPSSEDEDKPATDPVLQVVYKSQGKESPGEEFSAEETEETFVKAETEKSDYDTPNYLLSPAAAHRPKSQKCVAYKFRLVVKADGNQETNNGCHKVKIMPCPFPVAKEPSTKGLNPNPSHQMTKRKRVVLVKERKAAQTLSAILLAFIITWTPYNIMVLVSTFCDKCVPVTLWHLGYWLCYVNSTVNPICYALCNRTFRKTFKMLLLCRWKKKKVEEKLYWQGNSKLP
Kind of data set: Activity of compound against Muscarinic acetylcholine receptor M5 (CHRM5) by displacement of 3H-QNB.

Data set [9] concerns the target Voltage-gated inwardly rectifying potassium channel KCNH2 (Homo sapiens, UniProt Q12809).
Description: hERG binding assays: Displacement of [3H]-Dofetilide (5 nM final) from hERG membranes obtained from HEK293 cells

This note sets out measurements from ChEMBL document CHEMBL4303773 (Nature, 2020).

The Ki is a measure of affinity in units of concentration, obtained from inhibition or displacement. A lower Ki goes with tighter binding.

SMILES strings stand for the structures.

Chain of Voltage-gated inwardly rectifying potassium channel KCNH2 (Q12809 whole entry): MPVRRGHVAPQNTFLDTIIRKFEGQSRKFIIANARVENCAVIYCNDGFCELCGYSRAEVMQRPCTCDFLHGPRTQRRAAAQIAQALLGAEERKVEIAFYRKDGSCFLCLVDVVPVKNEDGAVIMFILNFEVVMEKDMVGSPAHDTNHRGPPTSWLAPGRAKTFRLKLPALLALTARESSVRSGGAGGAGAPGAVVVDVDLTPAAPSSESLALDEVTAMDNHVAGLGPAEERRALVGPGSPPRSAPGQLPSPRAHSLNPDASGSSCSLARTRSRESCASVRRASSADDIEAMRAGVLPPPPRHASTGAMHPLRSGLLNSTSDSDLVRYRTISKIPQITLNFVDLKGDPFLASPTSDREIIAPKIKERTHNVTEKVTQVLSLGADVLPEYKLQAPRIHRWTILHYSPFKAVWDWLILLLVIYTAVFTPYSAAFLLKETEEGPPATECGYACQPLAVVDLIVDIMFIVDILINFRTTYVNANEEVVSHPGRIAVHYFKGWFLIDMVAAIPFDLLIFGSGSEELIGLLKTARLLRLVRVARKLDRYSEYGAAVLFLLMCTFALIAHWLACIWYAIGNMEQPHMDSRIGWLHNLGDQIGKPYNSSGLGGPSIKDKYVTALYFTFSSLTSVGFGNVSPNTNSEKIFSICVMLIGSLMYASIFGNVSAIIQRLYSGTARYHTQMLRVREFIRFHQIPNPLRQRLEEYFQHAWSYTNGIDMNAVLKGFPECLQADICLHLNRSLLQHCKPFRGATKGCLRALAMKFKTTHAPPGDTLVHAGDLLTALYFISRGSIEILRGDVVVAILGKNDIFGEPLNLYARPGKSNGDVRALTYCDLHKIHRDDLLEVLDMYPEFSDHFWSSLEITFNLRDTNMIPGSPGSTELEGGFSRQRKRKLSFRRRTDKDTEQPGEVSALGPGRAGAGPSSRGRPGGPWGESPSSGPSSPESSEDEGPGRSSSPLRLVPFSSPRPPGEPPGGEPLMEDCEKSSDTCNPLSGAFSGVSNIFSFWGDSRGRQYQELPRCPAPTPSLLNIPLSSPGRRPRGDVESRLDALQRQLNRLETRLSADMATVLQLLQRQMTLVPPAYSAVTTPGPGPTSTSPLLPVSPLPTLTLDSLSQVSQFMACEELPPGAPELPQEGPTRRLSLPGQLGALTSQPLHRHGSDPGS
Chain of Muscarinic acetylcholine receptor M3 (P20309 whole entry): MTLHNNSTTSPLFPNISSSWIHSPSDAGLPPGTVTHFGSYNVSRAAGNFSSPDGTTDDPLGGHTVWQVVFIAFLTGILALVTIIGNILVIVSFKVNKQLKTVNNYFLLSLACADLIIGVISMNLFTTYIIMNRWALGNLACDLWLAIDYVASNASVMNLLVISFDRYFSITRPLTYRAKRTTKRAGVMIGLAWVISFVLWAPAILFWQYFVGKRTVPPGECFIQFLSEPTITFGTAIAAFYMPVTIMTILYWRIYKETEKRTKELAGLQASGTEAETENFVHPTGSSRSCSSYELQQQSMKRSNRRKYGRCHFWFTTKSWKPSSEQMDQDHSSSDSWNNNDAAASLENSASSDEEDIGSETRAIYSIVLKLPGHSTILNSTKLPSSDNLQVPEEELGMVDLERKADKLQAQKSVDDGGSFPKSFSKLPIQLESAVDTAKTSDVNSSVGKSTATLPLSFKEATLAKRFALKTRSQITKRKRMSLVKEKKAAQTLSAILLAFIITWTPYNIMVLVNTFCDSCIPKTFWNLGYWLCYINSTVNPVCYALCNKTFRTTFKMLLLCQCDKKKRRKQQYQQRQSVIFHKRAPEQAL

As to `CCCN1CCC=C(c2cc(-c3ccc(C)cc3)no2)C1`, the pCC50 in the data set on Vero C1008 was ~ 2.928. Besides, the Ki was 10 µM in [1]; over 31.6 µM in data set [2]; 0.794 µM in data set [3]; 0.002 µM in [4]; 20.4 µM in data set [5]; 24 µM in data set [6]. In addition, the Ki in data set [7] was 24 µM; in data set [8], 28.2 µM; in data set [9] it was 10 µM.
